In ChEMBL document CHEMBL1127936, “Mercaptoacyl dipeptides as dual inhibitors of angiotensin-converting enzyme and neutral endopeptidase. Preliminary structure-activity studies” (Bioorg Med Chem Lett, 1994):

Assays:
[1] = biological target: T1, Angiotensin-converting enzyme (Oryctolagus cuniculus, UniProt P12822); test: In vitro inhibition of rabbit lung Angiotensin I converting enzyme (ACE) using Hippuryl-His-Leu as substrate
T1 sequence (P12822 whole entry): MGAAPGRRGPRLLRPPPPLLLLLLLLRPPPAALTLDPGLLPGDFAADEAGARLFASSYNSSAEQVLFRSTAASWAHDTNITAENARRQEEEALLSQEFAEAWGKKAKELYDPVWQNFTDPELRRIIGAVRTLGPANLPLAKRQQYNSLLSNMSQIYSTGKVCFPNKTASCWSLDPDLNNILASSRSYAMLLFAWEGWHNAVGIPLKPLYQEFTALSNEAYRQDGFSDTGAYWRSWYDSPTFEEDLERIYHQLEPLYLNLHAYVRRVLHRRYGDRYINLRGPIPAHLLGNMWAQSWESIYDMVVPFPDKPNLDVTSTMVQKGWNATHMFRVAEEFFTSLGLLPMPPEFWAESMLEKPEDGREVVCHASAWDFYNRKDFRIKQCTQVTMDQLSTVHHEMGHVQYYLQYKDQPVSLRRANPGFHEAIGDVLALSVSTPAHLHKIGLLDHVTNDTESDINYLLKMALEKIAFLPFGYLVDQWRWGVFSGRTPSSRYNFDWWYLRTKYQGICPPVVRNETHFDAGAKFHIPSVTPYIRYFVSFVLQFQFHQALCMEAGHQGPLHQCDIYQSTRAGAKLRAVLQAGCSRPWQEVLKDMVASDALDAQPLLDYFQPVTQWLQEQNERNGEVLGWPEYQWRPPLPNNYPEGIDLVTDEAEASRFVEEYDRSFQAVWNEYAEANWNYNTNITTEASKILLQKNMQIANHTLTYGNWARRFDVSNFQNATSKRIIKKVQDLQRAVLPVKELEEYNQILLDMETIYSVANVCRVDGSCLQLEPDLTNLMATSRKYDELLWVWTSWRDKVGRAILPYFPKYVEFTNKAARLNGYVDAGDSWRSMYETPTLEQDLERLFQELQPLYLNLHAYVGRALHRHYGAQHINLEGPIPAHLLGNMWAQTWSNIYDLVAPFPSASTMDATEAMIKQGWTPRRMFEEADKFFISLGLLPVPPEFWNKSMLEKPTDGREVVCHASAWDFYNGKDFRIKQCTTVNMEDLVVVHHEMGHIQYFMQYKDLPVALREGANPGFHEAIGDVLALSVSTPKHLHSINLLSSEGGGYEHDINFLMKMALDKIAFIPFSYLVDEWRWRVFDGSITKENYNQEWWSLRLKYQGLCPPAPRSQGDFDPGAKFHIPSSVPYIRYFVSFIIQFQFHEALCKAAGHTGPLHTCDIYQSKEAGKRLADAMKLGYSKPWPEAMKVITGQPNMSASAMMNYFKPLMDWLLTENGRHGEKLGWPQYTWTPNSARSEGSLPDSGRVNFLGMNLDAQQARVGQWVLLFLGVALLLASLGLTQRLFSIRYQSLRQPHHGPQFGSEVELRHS

Neprilysin = biological target: T2, Neprilysin (Rattus norvegicus, UniProt P07861); test: In vitro inhibition of rat kidney neutral endopeptidase (NEP) by fluorometric assay using Dansyl-Gly-Phe-Arg as substrate
T2 sequence (P07861 whole entry): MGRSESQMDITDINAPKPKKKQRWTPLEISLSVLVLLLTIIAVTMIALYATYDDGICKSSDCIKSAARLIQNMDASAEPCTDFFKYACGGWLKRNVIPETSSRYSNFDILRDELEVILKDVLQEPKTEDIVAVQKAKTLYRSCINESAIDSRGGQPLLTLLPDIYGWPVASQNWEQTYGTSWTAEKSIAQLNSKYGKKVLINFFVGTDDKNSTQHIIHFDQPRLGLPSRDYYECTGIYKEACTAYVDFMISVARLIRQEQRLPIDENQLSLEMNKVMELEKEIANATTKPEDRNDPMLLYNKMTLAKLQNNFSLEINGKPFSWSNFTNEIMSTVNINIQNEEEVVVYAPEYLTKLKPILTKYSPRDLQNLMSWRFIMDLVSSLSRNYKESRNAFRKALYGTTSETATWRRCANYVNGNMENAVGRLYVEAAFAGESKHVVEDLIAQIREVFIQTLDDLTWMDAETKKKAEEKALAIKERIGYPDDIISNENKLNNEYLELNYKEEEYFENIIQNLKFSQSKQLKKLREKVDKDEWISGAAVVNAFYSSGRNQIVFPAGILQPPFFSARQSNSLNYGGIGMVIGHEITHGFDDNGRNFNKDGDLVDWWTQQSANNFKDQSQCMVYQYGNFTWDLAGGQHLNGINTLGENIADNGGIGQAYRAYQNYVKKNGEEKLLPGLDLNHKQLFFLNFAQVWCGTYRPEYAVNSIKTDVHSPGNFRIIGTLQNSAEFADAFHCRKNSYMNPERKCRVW

Rattus norvegicus [2] = test: In vivo inhibition of angiotensin I-induced pressor response after iv administration in normotensive rats; type: functional
Rattus norvegicus [3] = test: In vivo inhibition of angiotensin- 1 induced pressor response after iv administration in normotensive rats; type: functional

Structure (SMILES)	IC50 [1]	IC50 (Neprilysin)	ED50 (Rattus norvegicus [2])	ED50 (Rattus norvegicus [3])
O=C(N[C@@H](Cc1c[nH]c2ccccc12)C(=O)N1CCC[C@H]1C(=O)O)[C@@H](CS)Cc1ccccc1	10 nM	25 nM	6.4 µmol/kg	
C[C@H](NC(=O)[C@@H](CS)Cc1ccccc1)C(=O)N1C[C@@H](Sc2ccccc2)C[C@H]1C(=O)O	8.7 nM	1.6 nM	0.78 µmol/kg	
CC(C)C[C@H](NC(=O)[C@@H](CS)Cc1ccccc1)C(=O)O	37 nM			
C[C@H](NC(=O)[C@H](Cc1ccccc1)[C@H](C)S)C(=O)N1CCC[C@H]1C(=O)O	452 nM	32 nM		
C[C@H](CS)C(=O)N[C@@H](C)C(=O)N1CCC[C@@H]1C(=O)O	1800 nM	140 nM		
C[C@H](NC(=O)[C@H](S)Cc1ccccc1)C(=O)N1CCC[C@H]1C(=O)O	80 nM	285 nM	0.03 µmol/kg	
CC(C)C[C@H](NC(=O)[C@@H](S)Cc1ccccc1)C(=O)O	1600 nM			
C[C@H](NC(=O)[C@@H](CS)Cc1ccc(OCc2ccccc2)cc1)C(=O)N1CCC[C@@H]1C(=O)O	880 nM	40 nM		
C[C@H](NC(=O)[C@@H](CS)Cc1ccccc1)C(=O)N1C[C@H](C2CCCCC2)C[C@H]1C(=O)O	18 nM	6.6 nM	2.5 µmol/kg	
CCC[C@H](NC(=O)[C@@H](CS)Cc1ccccc1)C(=O)N1CCC[C@H]1C(=O)O	10 nM	2 nM	2.2 µmol/kg	
C[C@H](NC(=O)[C@@H](S)Cc1ccccc1)C(=O)N1CCC[C@H]1C(=O)O	30 nM	400 nM	0.06 µmol/kg	
C[C@H](NC(=O)[C@@H](CS)Cc1ccccc1Cl)C(=O)N1CCC[C@@H]1C(=O)O	25 nM	2.2 nM	2.6 µmol/kg	
C[C@H](NC(=O)[C@@H](CS)Cc1ccccc1)C(=O)N1CCC[C@H]1C(=O)O	4 nM	6.6 nM	0.5 µmol/kg	
O=C(O)CCNC(=O)[C@@H](CS)Cc1ccccc1	32000 nM	9.4 nM		
C[C@H](NC(=O)[C@@H](CS)Cc1ccccc1)C(=O)N1Cc2ccccc2C[C@H]1C(=O)O	14 nM	3.9 nM	0.57 µmol/kg	
CC(C)CC(CS)C(=O)N[C@@H](C)C(=O)N1CCC[C@@H]1C(=O)O (stereo not given in full)	490 nM	10 nM		
C[C@H](NC(=O)C(CS)CCc1ccccc1)C(=O)N1CCC[C@@H]1C(=O)O (stereo not given in full)	290 nM	160 nM		
Cc1ccccc1C[C@H](CS)C(=O)N[C@@H](C)C(=O)N1CCC[C@@H]1C(=O)O	69 nM	6.2 nM	4.2 µmol/kg	
C[C@H](NC(=O)[C@@H](CS)Cc1ccccc1)C(=O)O	120 nM			15 µmol/kg
C[C@H](NC(=O)[C@@H](CS)Cc1ccccc1)C(=O)N1c2ccccc2C[C@H]1C(=O)O	7.8 nM	2.6 nM	0.15 µmol/kg	
C[C@H](NC(=O)[C@H](CS)Cc1ccccc1)C(=O)N1CCC[C@H]1C(=O)O	210 nM	45 nM	8.1 µmol/kg	
C[C@H](NC(=O)[C@H](Cc1ccccc1)[C@@H](C)S)C(=O)N1CCC[C@H]1C(=O)O	78 nM	182 nM	> 5 µmol/kg	
